Molecular target: Substance-P receptor (Homo sapiens, UniProt P25103)
Test: Binding affinity at human Tachykinin receptor 1 expressed in CHO cells by [125 I][…]-substance P displacement.

Sequence of Substance-P receptor (P25103 whole entry): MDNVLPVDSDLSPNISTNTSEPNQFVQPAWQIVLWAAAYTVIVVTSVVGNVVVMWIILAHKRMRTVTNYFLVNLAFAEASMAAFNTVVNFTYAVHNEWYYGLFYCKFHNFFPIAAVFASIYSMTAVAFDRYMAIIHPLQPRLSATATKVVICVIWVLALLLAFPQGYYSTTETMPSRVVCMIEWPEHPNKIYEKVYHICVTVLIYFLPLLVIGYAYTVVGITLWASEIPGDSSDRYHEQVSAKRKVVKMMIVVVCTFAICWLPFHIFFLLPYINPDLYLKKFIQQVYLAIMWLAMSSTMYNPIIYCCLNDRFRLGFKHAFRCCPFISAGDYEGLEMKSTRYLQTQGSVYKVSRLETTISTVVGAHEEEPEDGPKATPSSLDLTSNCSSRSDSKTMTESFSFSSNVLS

With O=c1oc(Cc2c[nH]c3ccccc23)c(O)n1Cc1cc(C(F)(F)F)cc(C(F)(F)F)c1 the IC50 was 22 nM.

Reference: BindingDB's records for doi:10.1021/jm00006a011 (Merck Sharp & Dohme Research Laboratories, 1995)
